According to patent publication US20260070922A1, “PYRAZOLE AND IMIDAZOLE DERIVATIVES AS DUAL OREXIN AND KAPPA-OPIOID RECEPTORS MODULATORS COMPOSITION, METHODS FOR TREATING NEUROLOGICAL AND PSYCHIATRIC DISORDERS” (HAGER BIOSCIENCES, LLC, priority 2022, published 2026):
pIC50, pKi: −log10 of the molar value.

Assays:
[1] = molecular target: T1, Orexin type 1 (OX1R) receptor (Homo sapiens, UniProt O43613); test: In vitro orexin antagonism assay: intracellular calcium measurement (FLIPR), orexin-A 3 nM as agonist; type: cell-based; conditions: for pIC50: first value of IC50/Kb cell; for Kb: second value of IC50/Kb cell; for inhibition at 1 µM: read-out: OX1R, % Inh. @ 1 uM
T1 construct: expressed in transfected cells; host or cells: CHO cells (G418 selection)
T1 sequence (O43613 1-425): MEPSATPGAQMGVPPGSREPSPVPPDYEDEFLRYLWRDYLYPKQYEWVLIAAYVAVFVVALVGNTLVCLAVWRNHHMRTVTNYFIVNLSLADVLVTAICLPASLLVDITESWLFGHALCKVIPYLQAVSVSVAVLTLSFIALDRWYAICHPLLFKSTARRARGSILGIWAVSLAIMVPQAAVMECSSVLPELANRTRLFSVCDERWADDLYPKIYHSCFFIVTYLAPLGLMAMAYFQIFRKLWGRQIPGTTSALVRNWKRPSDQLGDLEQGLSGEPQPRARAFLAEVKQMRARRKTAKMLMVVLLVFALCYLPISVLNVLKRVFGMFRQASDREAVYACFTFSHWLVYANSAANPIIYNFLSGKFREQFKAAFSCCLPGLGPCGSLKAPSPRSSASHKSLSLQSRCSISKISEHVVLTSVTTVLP
How it was run: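 CHO cells expressing the human orexin receptor were loaded with 3 μM fluo-4 AM plus 5 mM probenecid, then exposed to antagonist for 120 min before 3 nM orexin-A (final) was added on a FLIPR.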

[2] = molecular target: T2, human orexin-2 receptor (OX2R) (Homo sapiens, UniProt O43614); test: as above; type: cell-based; conditions: for pIC50: first value of IC50/Kb cell; for Kb: second value of IC50/Kb cell; for inhibition at 1 µM: read-out: OX2R, % Inh. @ 1 uM
T2 construct: expressed in transfected cells; host or cells: CHO cells (G418 selection)
T2 sequence (O43614 1-444): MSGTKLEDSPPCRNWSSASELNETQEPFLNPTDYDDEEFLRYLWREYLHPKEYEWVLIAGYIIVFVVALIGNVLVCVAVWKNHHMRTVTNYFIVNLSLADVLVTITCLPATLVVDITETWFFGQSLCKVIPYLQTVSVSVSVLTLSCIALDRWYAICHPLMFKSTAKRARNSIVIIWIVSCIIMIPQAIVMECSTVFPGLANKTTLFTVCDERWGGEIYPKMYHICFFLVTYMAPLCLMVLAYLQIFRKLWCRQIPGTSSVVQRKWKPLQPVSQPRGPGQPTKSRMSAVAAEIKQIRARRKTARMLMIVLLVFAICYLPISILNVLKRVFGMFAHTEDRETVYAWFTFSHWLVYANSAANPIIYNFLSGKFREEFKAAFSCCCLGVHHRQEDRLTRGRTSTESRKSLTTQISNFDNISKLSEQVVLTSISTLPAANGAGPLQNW
How it was run: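 CHO cells stably expressing human OX1R or OX2R, loaded with fluo-4 AM (3 μM, 5 mM probenecid) for 50 min at 37 °C, then 30 min at RT. Antagonist preincubated 120 min before 3 nM orexin-A; FLIPR fluorescence peak height vs vehicle gives IC50, possibly normalized to on-plate reference; geometric mean of repeats.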

[3] = molecular target: T3, human k-opioid receptor (kOR) (Homo sapiens, UniProt P41145); test: Human k-opioid (KOP) receptor (agonist radioligand [3H]U-69593) binding assay, transfected RBL cell membranes; conditions: for pIC50: first value of IC50/Ki cell; for pKi: second value of IC50/Ki cell; for inhibition at 1 µM: read-out: KOR % Inh. @ 1 uM
T3 construct: expressed in transfected cells; host or cells: RBL cells (membrane homogenates)
How it was run: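 Membranes from transfected RBL cells (~80 μg protein) incubated 60 min at 22° C with 0.5 nM [3H]U-69593 in 50 mM Tris-HCl pH 7.4, 10 mM MgCl2, 1 mM EDTA. Nonspecific binding defined with 10 μM naloxone; filtration and scintillation counting. Values are percent inhibition of specific radioligand binding.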

T3 sequence (P41145 whole entry): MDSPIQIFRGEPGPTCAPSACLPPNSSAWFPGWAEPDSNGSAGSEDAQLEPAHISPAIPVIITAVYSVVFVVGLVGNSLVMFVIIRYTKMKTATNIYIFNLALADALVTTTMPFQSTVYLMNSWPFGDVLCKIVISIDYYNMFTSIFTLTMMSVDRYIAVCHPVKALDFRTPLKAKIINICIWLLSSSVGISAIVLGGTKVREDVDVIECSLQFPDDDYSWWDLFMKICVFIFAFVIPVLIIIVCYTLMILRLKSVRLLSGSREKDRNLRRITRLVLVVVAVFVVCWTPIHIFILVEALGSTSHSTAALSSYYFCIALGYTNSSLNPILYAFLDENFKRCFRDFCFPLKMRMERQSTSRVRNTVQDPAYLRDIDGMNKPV

| Structure (SMILES) | pIC50 [1] | Kb [1] [nM] | pIC50 [2] | Kb [2] [nM] | inhibition at 1 µM [1] [%] | inhibition at 1 µM [2] [%] | inhibition at 1 µM [3] [%] | OX1R, % Inh. @ 1 uM [1] [%] | OX2R, % Inh. @ 1 uM [2] [%] | KOR % Inh. @ 1 uM [3] [%] | pIC50 [3] | pKi [3] |
| --- | --- | --- | --- | --- | --- | --- | --- | --- | --- | --- | --- | --- |
| O=C(c1c(-c2ccccc2F)nn2c1COCC2)N1CCC[C@H]1Cn1ccc(-c2ccc(F)cc2)n1 [Example 66] | 7.48 | 7 | 6.88 | 18 |  |  |  | 84 | 68 | 77 | 6.66 | 6.92 |
| C[C@@]1(COc2ccc(C(F)(F)F)cn2)CCCN1C(=O)c1nn2c(c1-c1ccccc1)COCC2 [Example 145] | 6.57 | 56 |  |  | 96 | 5 | 12 |  |  |  |  |  |
| O=C(c1c(-c2ccccc2F)nn2ccccc12)N1CCC[C@H]1Cn1ccc(-c2ccc(F)cn2)n1 [Example 90] | 8.22 | 1 | 7.82 | 3 |  |  |  | 99 | 84 | 33 |  |  |
| O=C(c1nc2ccccn2c1-c1ccccc1)N1[C@@H]2CC[C@@H](C2)[C@H]1COc1ccc(C(F)(F)F)cn1 [Example 125] | 6.72 | 41 | 7.70 | 3 | 93 | 57 | 7 |  |  |  |  |  |
| O=C(c1nn2cccnc2c1-c1ccccn1)N1CCC[C@H]1Cn1cc(-c2ccc(F)cn2)cn1 [Example 194] |  |  | 6.74 | 31 | 89 | 82 | 0 |  |  |  |  |  |
| C[C@@]1(COc2ccc(C(F)(F)F)cn2)CCCN1C(=O)c1nn2c(c1-c1ccccc1)OCCC2 [Example 157] | 6.72 | 39 |  |  | 100 | 16 | 7 |  |  |  |  |  |
| O=C(c1c(-c2ncccn2)nn2ccccc12)N1[C@@H]2CC[C@@H](C2)[C@H]1COc1ccc(C(F)(F)F)cn1 [Example 153] | 6.72 | 40 |  |  | 90 | 35 | 0 |  |  |  |  |  |
| C[C@@]1(COc2ccc(C(F)(F)F)cn2)CCCN1C(=O)c1c(-c2ccccc2)nn2ccccc12 [Example 151] | 7.05 | 19 |  |  | 99 | 34 | 7 |  |  |  |  |  |
| C[C@@]1(COc2ccc(C(F)(F)F)cn2)CCCN1C(=O)c1nc2ccccn2c1-c1ccccc1 [Example 144] | 6.60 | 53 |  |  | 98 | 13 | 4 |  |  |  |  |  |
| O=C(c1c(-c2ccccc2)nn2ccccc12)N1CCC[C@H]1Cn1ccc(-c2ccc(F)cc2)n1 [Example 59] | 8.40 | 0.7 | 7.96 | 2 |  |  |  | 91 | 99 | 56 | 6.33 | 6.59 |
| O=C(c1c(-c2ccccc2)nc2cc(C(F)(F)F)ccn12)N1CCC[C@H]1Cn1ccc(-c2ccccn2)n1 [Example 78] | 6.80 | 34 | 6.57 | 48 | 78 | 55 | 52 |  |  |  |  |  |
| O=C(c1c(-c2ccc(F)cc2)nn2ccccc12)N1CCC[C@H]1Cn1ccc(-c2ccc(F)cc2)n1 [Example 55] | 8.30 | 1 | 7.48 | 5 |  |  |  | 100 | 93 | 66 | 6.32 | 6.59 |
| O=C(c1c(-c2ccc(F)cc2)nn2ccccc12)N1CCC[C@H]1Cn1ccc(-c2ccc(C(F)(F)F)cc2)n1 [Example 56] | 6.24 | 121 |  |  |  |  |  | 59 | 12 | 76 | 6.35 | 6.60 |
| O=C(c1nn2c(c1-c1ccccc1)COCC2)N1[C@@H]2CC[C@@H](C2)[C@H]1COc1ccc(C(F)(F)F)cn1 [Example 152] | 5.62 | 510 |  |  | 58 | 16 | 3 |  |  |  |  |  |
| O=C(c1c(-c2ccccc2F)nn2ccccc12)N1CCC[C@H]1Cn1cc(-c2ccccn2)cn1 [Example 68] | 7.33 | 10 | 6.77 | 30 | 82 | 64 | 48 |  |  |  |  |  |
| O=C(c1c(-c2ccccc2)nn2c1COCC2)N1CCC[C@H]1Cn1ccc(-c2ccc(F)cc2)n1 [Example 57] | 7.19 | 14 | 6.11 | 107 |  |  |  | 73 | 52 | 76 | 6.36 | 6.62 |

Further lines, with some results ahead:

| pIC50 [1] | Kb [1] [nM] | pIC50 [2] | Kb [2] [nM] | inhibition at 1 µM [1] [%] | inhibition at 1 µM [2] [%] | inhibition at 1 µM [3] [%] | Structure (SMILES) | OX1R, % Inh. @ 1 uM [1] [%] | OX2R, % Inh. @ 1 uM [2] [%] | KOR % Inh. @ 1 uM [3] [%] | pIC50 [3] | pKi [3] |
| --- | --- | --- | --- | --- | --- | --- | --- | --- | --- | --- | --- | --- |
| 8.40 | 1 | 7.08 | 14 | 99 | 81 | 44 | O=C(c1c(-c2ccccc2)nn2cccnc12)N1CCC[C@H]1Cn1ccc(-c2ccccc2)n1 [Example 133] |  |  |  |  |  |
| 8.30 | 1 |  |  | 100 | 37 | 6 | O=C(c1nc2ccccn2c1-c1ccccc1)N1CCC[C@H]1Cn1ccc(-c2ccccn2)n1 [Example 119] |  |  |  |  |  |
| 7.77 | 4 |  |  | 99 | 24 | 10 | O=C(c1nc2ccccn2c1-c1ccccc1)N1[C@H](Cn2ccc(-c3ccc(F)cn3)n2)C[C@@H]2C[C@@H]21 [Example 126] |  |  |  |  |  |
| 8.22 | 1 | 6.62 | 41 | 100 | 88 | 7 | O=C(c1nn2c(c1-c1ccccc1)COCC2)N1CCC[C@H]1Cn1ccc(-c2ccccc2)n1 [Example 129] |  |  |  |  |  |
| 8.30 | 1 |  |  | 100 | 33 | 40 | O=C(c1nn2c(c1-c1ccccc1)COCC2)N1CCC[C@H]1COc1ccc(C(F)(F)F)cn1 [Example 141] |  |  |  |  |  |
| 8.40 | 1 | 6.18 | 110 | 100 | 71 | 22 | O=C(c1nn2c(c1-c1ccccc1)OCCC2)N1CCC[C@H]1Cn1ccc(-c2ccccn2)n1 [Example 135] |  |  |  |  |  |
| 8.15 | 1 |  |  | 100 | 17 | 19 | O=C(c1nc2ccccn2c1-c1ccccc1)N1CCC[C@H]1Cc1nc(-c2ccccn2)no1 [Example 128] |  |  |  |  |  |
| 8.05 | 2 |  |  | 82 | 48 | 37 | O=C(c1c(-c2ccccc2)nc2ccc(F)cn12)N1CCC[C@H]1Cn1ccc(-c2ccccn2)n1 [Example 73] |  |  |  |  |  |
| 7.42 | 9 |  |  | 94 | 67 | 0 | O=C(c1nn2ccccc2c1-c1ccccn1)N1CCC[C@H]1Cn1cc(-c2ccc(F)cn2)cn1 [Example 183] |  |  |  |  |  |
